Source: EP1178807B1, “USE OF ORG 33245 IN COMBINED INTERMITTENT HORMONE THERAPY AND CONTRACEPTION” (Akzo Nobel N.V., priority 1999, dated 2000)

Key:
[1] = Anti-McPhail test for anti-progestagenic activity; format: in vivo; conditions: Minimum Active Dose (MAD)
Experimental: Anti-progestagenic activity is determined by using an anti-McPhail test as known to the person skilled in the art and described, int.al., in Kloosterboer et al., Human Reproduction (1994), Volume 9, Supplement 1, pages 47-52.

orosomucoid = assay: Binding to orosomucoid (as described in Philibert et al.); design: species or system human; conditions: for Binding affinity to orosomucoid (relative to RU 486): relative to RU 486 (100%)
Experimental: Of several anti-progestagens the binding to orosomucoid is determined as described in Philibert et al., Antihormones in Health and Disease (M.K. Agarwal, ed.), 1991, 19, 1-17.

C=C1CCO[C@]12CC[C@H]1[C@@H]3CCC4=CC(=O)CCC4=C3[C@@H](c3ccc(C(C)=O)cc3)C[C@@]12C
minimal effective dose [1]: 8 mg/kg | Binding affinity to orosomucoid (relative to RU 486) (orosomucoid): 13,5%

C=C1CCO[C@]12CC[C@H]1[C@@H]3CCC4=CC(=O)CCC4=C3[C@@H](c3ccc(N(C)C)cc3)C[C@@]12C [Org 33245, (11β,17α)-17,23-epoxy-11-[(4-dimethylamino)phenyl]-19,24-dinorchola-4,9,20-trien-3-one]
minimal effective dose [1]: 0.5 mg/kg | Binding affinity to orosomucoid (relative to RU 486) (orosomucoid): 222% | binding to human orosomucoid (orosomucoid; result in words, said to indicate a relatively long half life): strong binding

C=C1CCO[C@]12CC[C@H]1[C@@H]3CCC4=CC(=O)CCC4=C3[C@@H](c3ccc(SC)cc3)C[C@@]12C
minimal effective dose [1]: > 1 mg/kg | Binding affinity to orosomucoid (relative to RU 486) (orosomucoid): 82%

C=C1CCO[C@]12CC[C@H]1[C@@H]3CCC4=CC(=O)CCC4=C3[C@@H](c3ccc(OC)cc3)C[C@@]12C
minimal effective dose [1]: 1 mg/kg | Binding affinity to orosomucoid (relative to RU 486) (orosomucoid): 64%
